Experiments:
Type in all cases: biochemical
[1] = target: T1, lymphoid tyrosine phosphatase (LYP) (Homo sapiens, UniProt Q9Y2R2); experiment: LYP enzymatic activity assay, chelator fragments with and without zinc acetate; settings: for Time dependence of LYP inhibition: incubation 0, 30, 60, 120 min; for Effect on LYP enzymatic activity alone: chelator alone, no added zinc; for Chelator concentration sufficient to restore LYP activity: two equiv
T1 sequence (Q9Y2R2 24-289 limits assumed): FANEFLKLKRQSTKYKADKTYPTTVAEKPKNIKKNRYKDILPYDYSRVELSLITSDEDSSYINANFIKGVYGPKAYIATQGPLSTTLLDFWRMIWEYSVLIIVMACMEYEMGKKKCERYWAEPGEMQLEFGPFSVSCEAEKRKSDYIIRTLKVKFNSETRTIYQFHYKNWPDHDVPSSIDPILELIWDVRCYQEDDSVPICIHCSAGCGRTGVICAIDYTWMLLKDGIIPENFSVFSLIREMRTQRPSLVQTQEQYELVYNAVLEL

PTP1B = experiment: Inhibition of PTP1B by compound 1h; settings: Figure 6
CD45 = experiment: Inhibition of CD45 by compound 1h; settings: Figure 6
YopH = tested on: YopH
[2] = in the presence of 40 μM zinc acetate

O=C1C=Cc2ccccc2C1=O [1,2-naphthoquinone, reference compound]
Time dependence of LYP inhibition [1]: time-dependent manner

Oc1ccc2ccccc2c1O [Compound 1h, 1,2-dihydroxynaphthalene]
Time dependence of LYP inhibition [1]: time-dependent inhibitor
Selectivity for LYP over PTP1B (PTP1B): modest selectivity
Selectivity for LYP over CD45 (CD45): modest selectivity
Selectivity for LYP over YopH (YopH): modest selectivity

c1ccc(CNCc2ccccn2)nc1 [Compound 3g, di-(2-picolyl)-amine]
Effect on LYP enzymatic activity alone [1]: little effect
Rescue of LYP from zinc-mediated inhibition [1, 2]: capable of rescuing the enzyme from zinc-mediated inhibition
Chelator concentration sufficient to restore LYP activity [1, 2]: 80 µM

O=C1C=C(O)C(=O)c2ccccc21 [Compound 5g, 2-hydroxy-1,4-naphthoquinone]
Inhibition of LYP in the presence of zinc ([1]; 5 μM zinc acetate, follow-up studies): consistent concentration-dependent inhibition
Inhibition of LYP at the initial time point ([1]; absence of zinc, 0 min incubation): essentially no inhibition
Combined effect with zinc on LYP inhibition ([1]; in the presence of zinc (Figure S2)): additive effect
Time dependence of LYP inhibition [1]: time- dependent inhibition

O=C(O)c1cccc(C(=O)O)n1 [Compound 8a, 2,6-pyridine dicarboxylic acid]
Effect on LYP enzymatic activity alone [1]: little effect
Chelator equivalents (relative to zinc) required to restore LYP activity [1, 2]: slightly more than two equiv
Rescue of LYP from zinc-mediated inhibition [1, 2]: capable of rescuing the enzyme from zinc-mediated inhibition

Oc1ccc(Cl)c2cccnc12 [Compound 12b, 5-chloro-8-quinolol]
Effect on LYP enzymatic activity alone [1]: little effect
Rescue of LYP from zinc-mediated inhibition [1, 2]: capable of rescuing the enzyme from zinc-mediated inhibition
Chelator concentration sufficient to restore LYP activity [1, 2]: 80 µM

CC(=O)[O-].CC(=O)[O-].[Zn+2] [zinc acetate, reference compound]
Inhibition of LYP ([1]; 100 μM zinc(II) acetate, standard assay conditions): complete inhibition
LYP activity, % of the control ([1]; at 5 μM zinc acetate): 80%
LYP activity, % of the control [1, 2]: 20%

Source: paper PMC4497560 (Bioorganic & medicinal chemistry letters, 2014)
